Patent EP4778920A1, “INDAZOLONE COMPOUND, PREPARATION METHOD THEREFOR, PHARMACEUTICAL COMPOSITION, AND USE” (Shanghai Institute of Materia Medica, Chinese Academy of …, priority 2023, dated 2025)
Like-named read-outs stand apart in the source and are kept apart here.

Experiments:
Type in all cases: cell-based
MV-4-11 cells = assay: MV-4-11 cell proliferation inhibition (MTS assay); settings: Homo sapiens
Procedure: MV-4-11 cells were cultured in IMDM medium supplemented with 10% fetal bovine serum and collected. The cell concentration was diluted according to a 7-day incubation period, and 180 µL of cell suspension was added to each well of a 96-well plate, resulting in 2,000 cells per well. […] The test compounds were prepared from a 10 mM stock solution and serially diluted in a five-fold gradient, and 20 µL of the diluted compound solution was added to each compound-treated well (final DMSO concentration 0.2%). The cells were incubated in a 37 °C, 5% CO2 incubator for 7 days. After incubation, the reaction solution was prepared according to the MTS assay kit instructions (Promega, G5430), and 20 µL was added to each well. The plate was further incubated at 37 °C with 5% CO2 for 3-4 hours. The absorbance at 490 nm was measured using a microplate reader, and the absorbance at 690 nm was used as the background value. The final raw data were calculated as OD490 - OD690. […] The IC50 values for cell proliferation inhibition were determined using GraphPad Prism 5.0. Each experiment was repeated three times, and three parallel replicates were performed in each experiment to calculate the mean value and standard deviation.
Table 3. Inhibitory Activity of Compounds on MV-4-11 Cell Proliferation

MM.1S cells = assay: MM.1S cell proliferation inhibition (MTS assay); settings: Homo sapiens, MM1.S, 168 h, 7 days incubation, read-out: MM1.S (IC50, Inhibitory Activity of Compounds on MM.1S Cell Proliferation)
Procedure: The cell concentration was diluted according to a 7-day incubation period, and 180 µL of cell suspension was added to each well of a 96-well plate, with 20,000 cells per well. […] The test compounds were prepared from a 10 mM stock solution and serially diluted in a 5-fold gradient, and 20 µL of the diluted solution was added to each compound-treated well (final DMSO concentration also 0.2%). The cells were incubated in a 37 °C, 5% CO2 incubator for 7 days. After incubation, the reaction solution was prepared according to the MTS assay kit instructions (Promega, G5430), and 20 µL was added to each well. The plate was incubated at 37 °C with 5% CO2 for 3-4 hours. The absorbance at 490 nm was measured using a microplate reader, and the absorbance at 690 nm was used as the background value. […] The IC50 values for cell proliferation inhibition were determined using GraphPad Prism 5.0. Each experiment was repeated three times, and three parallel replicates were performed in each experiment to calculate the mean value and standard deviation.
Inhibitory Activity of Compounds on MM.1S Cell Proliferation

Mino cells = assay: Mino cell proliferation inhibition (MTS assay); settings: Homo sapiens, 72 h, 3 days incubation, read-out: Mino (IC50, Inhibitory Activity of Compounds on Mino Cell Proliferation)
Procedure: The cell concentration was diluted according to a 3-day incubation period, and 90 µL of cell suspension was added to each well of a 96-well plate, resulting in 8,000 cells per well. […] The test compounds were prepared from a 10 mM stock solution and serially diluted in a five-fold gradient. Similarly, 10 µL of the diluted compound solution was added to each compound-treated well (final DMSO concentration 0.2%).
The cells were incubated in a 37 °C, 5% CO2 incubator for 3 days. After incubation, the reaction solution was prepared according to the MTS assay kit instructions (Promega, G5430), and 20 µL was added to each well. The plate was further incubated at 37 °C with 5% CO2 for 3-4 hours. The absorbance at 490 nm was measured using a microplate reader, and the absorbance at 690 nm was used as the background value. The final raw data were calculated as OD490 - OD690. […] The IC50 values for cell proliferation inhibition were determined using GraphPad Prism 5.0. Each experiment was repeated three times, and three parallel replicates were performed in each experiment to calculate the mean value and standard deviation.
Table 2. Inhibitory Activity of Compounds on Mino Cell Proliferation

[1] = MV4-11, reference compounds, read-out: cell growth inhibitory activity (IC50)
[2] = MV4-11, 168 h, 7 days incubation, MTS, read-out: MV-411 (IC50, Inhibitory Activity of Compounds on MV-4-11 Cell Proliferation)

Compound	IC50 (MV-4-11 cells; [1]) [nM]	IC50 (MM.1S cells) [nM]	IC50 (MV-4-11 cells; [2]) [nM]	IC50 (Mino cells) [nM]
O=C1CC[C@H](N2Cc3c(OCc4ccc(CN5CCOCC5)cc4)cccc3C2=O)C(=O)N1 [CC-220, reference compound]	> 20000			
N#Cc1ccc(N2CCC(Sc3ccc(COc4cccc5c(=O)n([C@H]6CCC(=O)NC6=O)[nH]c45)cn3)CC2)c(F)c1 [Compound D3, (S)-4-(4-((5-(((2-(2,6-dioxopiperidin-3-yl)-3-oxo-2,3-dihydro-1H-indazol-7-yl)oxy)methyl)pyridin-2-yl)thio)piperidin-1-yl)-3-fluorobenzonitrile]		< 200	200 to 1000	< 200
O=C1CCC(n2[nH]c3c(OCc4ccc(CN5CCN(c6ccc(C(F)(F)F)cc6)CC5)cc4)cccc3c2=O)C(=O)N1 (centres unmarked) [Compound D11, 3-(3-Oxo-7-((4-((4-(4-(trifluoromethyl)phenyl)piperazin-1-yl)methyl)benzyl)oxy)-1,3-dihydro-2H-indazol-2-yl)piperidine-2,6-dione]		< 200	< 200	200 to 1000
O=C1CCC(n2[nH]c3c(OCc4ccc(CN5CCN(c6ccc(Cl)cc6Cl)CC5)cc4)cccc3c2=O)C(=O)N1 (centres unmarked) [Compound D12, 3-(7-((4-((4-(2,4-dichlorophenyl)piperazin-1-yl)methyl)benzyl)oxy)-3-oxo-1,3-dihydro-2H-indazol-2-yl)piperidine-2,6-dione]		< 200	< 200	200 to 1000
O=C1CCC(n2[nH]c3c(OCc4ccc(CN5CC(N6CCOCC6)C5)cc4)cccc3c2=O)C(=O)N1 (centres unmarked) [Compound D13, 3-(7-((4-((3-morpholinoazetidin-1-yl)methyl)benzyl)oxy)-3-oxo-1,3-dihydro-2H-indazol-2-yl)piperidine-2,6-dione]		< 200	200 to 1000	1000 to 10000
O=C1CCC(n2[nH]c3c(OCc4ccc(CN5CCN(c6ccc(Cl)cc6Cl)CC5)cc4)cc(F)cc3c2=O)C(=O)N1 (centres unmarked) [Compound D16, 3-(7-((4-((4-(2,4-dichlorophenyl)piperazin-1-yl)methyl)benzyl)oxy)-5-fluoro-3-oxo-1,3-dihydro-2H-indazol-2-yl)piperidine-2,6-dione]		< 200	< 200	< 200
O=C1CCC(n2[nH]c3c(OCc4ccc(CN5CCN(c6ccc(C(F)(F)F)cc6)CC5)cc4)cc(F)cc3c2=O)C(=O)N1 (centres unmarked) [Compound D17, 3-(5-Fluoro-3-oxo-7-((4-((4-(4-(trifluoromethyl)phenyl)piperazin-1-yl)methyl)benzyl)oxy)-1,3-dihydro-2H-indazol-2-yl)piperidine-2,6-dione]		< 200	< 200	< 200
O=C1CCC(n2[nH]c3c(OCc4ccc(CN5CC(N6CCOCC6)C5)cc4)cc(F)cc3c2=O)C(=O)N1 (centres unmarked) [Compound D20, 3-(5-Fluoro-7-((4-((3-morpholinoazetidin-1-yl)methyl)benzyl)oxy)-3-oxo-1,3-dihydro-2H-indazol-2-yl)piperidine-2,6-dione]		< 200	200 to 1000	200 to 1000
O=C1CCC(n2[nH]c3c(OCc4ccc(CN5CCN(c6ccc(Cl)cc6F)CC5)cc4)cc(F)cc3c2=O)C(=O)N1 (centres unmarked) [Compound D21, 3-(7-((4-((4-(4-chloro-2-fluorophenyl)piperazin-1-yl)methyl)benzyl)oxy)-5-fluoro-3-oxo-1,3-dihydro-2H-indazol-2-yl)piperidine-2,6-dione]		< 200	< 200	200 to 1000
Cn1c2c(OCc3ccc(CN4CCOCC4)cc3)cccc2c(=O)n1C1CCC(=O)NC1=O (centres unmarked) [Compound D22, 3-(1-Methyl-7-((4-(morpholinomethyl)benzyl)oxy)-3-oxo-1,3-dihydro-2H-indazol-2-yl)piperidine-2,6-dione]		< 200	> 20000	> 10000
Cn1c2c(OCc3ccc(CN4CCN(c5ccc(C#N)cc5F)CC4)cc3)cccc2c(=O)n1C1CCC(=O)NC1=O (centres unmarked) [Compound D24, 4-(4-(4-(((2-(2,6-dioxopiperidin-3-yl)-1-methyl-3-oxo-2,3-dihydro-1H-indazol-7-yl)oxy)methyl)benzyl)piperazin-1-yl)-3-fluorobenzonitrile]		< 200	> 20000	< 200
O=C1CC[C@H](n2[nH]c3c(OCc4cnc(-c5ccc(OC(F)(F)F)cc5)o4)cccc3c2=O)C(=O)N1 [Compound D26, (S)-3-(3-Oxo-7-((2-(4-(trifluoromethoxy)phenyl)oxazol-5-yl)methoxy)-1,3-dihydro-2H-indazol-2-yl)piperidine-2,6-dione]		1000 to 10000	1000 to 20000	1000 to 10000
O=C1CC[C@H](n2[nH]c3c(OCc4cnc(-c5ccc(Cl)cc5)o4)cccc3c2=O)C(=O)N1 [Compound D27, (S)-3-(7-((2-(4-chlorophenyl)oxazol-5-yl)methoxy)-3-oxo-1,3-dihydro-2H-indazol-2-yl)piperidine-2,6-dione]		1000 to 10000	> 20000	> 10000
COc1ccc(-c2ncc(COc3cccc4c(=O)n(C5CCC(=O)NC5=O)[nH]c34)o2)cc1 (centres unmarked) [Compound D28, 3-(7-((2-(4-methoxyphenyl)oxazol-5-yl)methoxy)-3-oxo-1,3-dihydro-2H-indazol-2-yl)piperidine-2,6-dione]		1000 to 10000	> 20000	> 10000
O=C1CCC(n2[nH]c3cc(C(=O)NCc4ccc(Cl)cc4)ccc3c2=O)C(=O)N1 (centres unmarked) [Compound D29, N-(4-chlorobenzyl)-2-(2,6-dioxopiperidin-3-yl)-3-oxo-2,3-dihydro-1H-indazole-6-carboxamide]		> 10000	> 20000	> 10000
C[C@H](NC(=O)c1ccc2c(=O)n(C3CCC(=O)NC3=O)[nH]c2c1)c1ccc(Cl)cc1 (stereo partly drawn) [Compound D30, N-((S)-1-(4-chlorophenyl)ethyl)-2-(2,6-dioxopiperidin-3-yl)-3-oxo-2,3-dihydro-1H-indazole-6-carboxamide]		> 10000	1000 to 20000	1000 to 10000
Cc1ccc([C@H](C)NC(=O)c2ccc3c(=O)n(C4CCC(=O)NC4=O)[nH]c3c2)cc1 (some centres unmarked) [Compound D31]		> 10000	> 20000	> 10000
C[C@@H](NC(=O)c1ccc2c(=O)n(C3CCC(=O)NC3=O)[nH]c2c1)c1ccccc1 (stereo partly drawn) [Compound D32, 2-(2,6-dioxopiperidin-3-yl)-3-oxo-N-((R)-1-phenylethyl)-2,3-dihydro-1H-indazole-6-carboxamide]		> 10000	> 20000	> 10000
C[C@H](NC(=O)c1ccc2c(=O)n(C3CCC(=O)NC3=O)[nH]c2c1)c1ccccc1 (stereo partly drawn) [Compound D33, 2-(2,6-dioxopiperidin-3-yl)-3-oxo-N-((S)-1-phenylethyl)-2,3-dihydro-1H-indazole-6-carboxamide]		> 10000	> 20000	> 10000
C[C@@H](NC(=O)c1ccc2c(=O)n(C3CCC(=O)NC3=O)[nH]c2c1)c1ccc(Cl)cc1 (stereo partly drawn) [Compound D34, N-((R)-1-(4-chlorophenyl)ethyl)-2-(2,6-dioxopiperidin-3-yl)-3-oxo-2,3-dihydro-1H-indazole-6-carboxamide]		> 10000	> 20000	> 10000
O=C1CCC(n2[nH]c3cc(C(=O)N[C@@H](c4ccccc4)C(F)(F)F)ccc3c2=O)C(=O)N1 (stereo partly drawn) [Compound D35, 2-(2,6-dioxopiperidin-3-yl)-3-oxo-N-((S)-2,2,2-trifluoro-1-phenylethyl)-2,3-dihydro-1H-indazole-6-carboxamide]		> 10000	> 20000	> 10000
Nc1cccc2c1C(=O)N(C1CCC(=O)NC1=O)C2=O (centres unmarked) [pomalidomide, reference compound]	> 20000			
